Experimental data taken from paper PMC12121987, “New structural scaffolds to enhance the metabolic stability of arginine-derived PAD4 inhibitors” (Results in chemistry, 2025).
Read-outs that look alike come from different tables or passages of the source.

Key:
[1] = Microsomal metabolic stability, mouse liver microsomes; format: in vitro ADME; details: male, C57BL/6, mouse, pooled liver microsomes; for remaining at 1 h, 0.2 μM: pH 7.4, 60 min, n = 3, read-out: %remaining in MLM; for half-life at 0.2 μM: pH 7.4, MLM
Description: (§1) The metabolic stability of the compounds was evaluated using mouse liver microsomes (MLM) and human liver microsomes (HLM). Each compound was tested at a final concentration of 0.2 μM to determine their half-lives. […]
(§2) Microsomal metabolic stability assay protocol
(§3) Pooled liver microsomes from male C57BL/6 mouse (MLM) and mixed gender human (HLM) were obtained from Sekisui XenoTech (Kansas City, KS). Stock solutions of compounds (1 mM) were prepared in DMSO and diluted to 10 μM working solution using phosphate buffer (100 mM, pH 7.4). Microsomes (20 mg/mL) were thawed on ice and diluted to 1 mg/mL using potassium phosphate buffer (100 mM, pH 7.4). The mixture of liver microsomes and test compounds (0.2 μM) was (1 picture or pasted object on this page, not shown here) […]
(§4) preincubated at 37°C for 10 min. Next, NADPH-regenerating system (final concentrations of 1 mM NADP+, 5 mM glucose-6-phosphate, and 1 U/mL glucose-6-phosphate dehydrogenase) as a cofactor was added to the incubation mixtures at the final volume of 1000 μL to initiate the metabolic reactions. Quenching of the metabolic reaction was performed at specific intervals: 0, 5, 15, 30, and 60 min by adding100 μL of reaction mixtures to ice-cold acetonitrile (4 volumes) containing 25 nM internal standard. The samples were kept on ice for 15 minutes, followed by protein precipitation through centrifugation at 3600 rpm for 10 minutes at4°C. Finally, the liquid chromatography-mass spectrometry/MS (LC-MS/MS) analysis was conducted on obtained supernatants. To ensure accuracy, all measurements were […]
(§5) The percent of remaining compound (%R) compared to zero sample time was obtained at each time point using LC-MS peak areas. A plot was created for the natural logarithm (ln) of % R against the incubation time to determine the elimination rate constant from the slope of the linear part. The in vitro t1/2was measured by […]
(§6) While the following Eq. (2) was used for calculating CLint (μL/min/mg): […]

[2] = Microsomal metabolic stability, human liver microsomes; format: in vitro ADME; details: both sexes, pooled liver microsomes; for remaining at 1 h, 0.2 μM: pH 7.4, 60 min, n = 3, read-out: %remaining in HLM; for half-life at 0.2 μM: pH 7.4, HLM, read-out: half-life (t1/2) in human liver microsomes
Description: as §1, §2, §3, §4, §5, §6

MTT cytotoxicity assay = format: cell-based; details: human, A549 cells, 48-hour incubation; for viability at 48 h, 500 µM: read-out: Cell viability of A549 cells; for IC50 at 48 h: read-out: IC50 against A549 cells (cytotoxicity)
Description: (§7) The cytotoxicity of three compounds on A549 cells was evaluated using the MTT assay.
(§8) In vitro cytotoxicity was evaluated using the MTT
(§9) (3-(4,5-dimethylthiazol-2-yl)-2,5-diphenyltetrazolium bromide) assay. Freshly trypsinized A549 cells were seeded into 96-well plates at a density of 5 × 10⁴ cells/mL, with 100 µL per well, and incubated at 37°C in a 5% CO₂ atmosphere for 12 hours. […]
(§10) concentrations of 500 μM, 50 μM, and 5 μM (25 µL per well), followed by 48-hour incubation. After this period, MTT solution (5 mg/mL) was added to each well at 25 µL per well, and the plates were incubated for an additional 4 hours. Control wells containing untreated cells were handled identically. Following incubation, the medium in the 96-well plate was removed, and 100 µL of DMSO was added to each well to dissolve the formazan crystals produced by the reduction of MTT in viable cells. Absorbance was measured using a microplate reader. Cell viability was determined using the following formula: Cell viability (%) = (OD-treated cells)/(OD […]

A549 cells = assay: MTT cytotoxicity assay; format: cell-based; details: 50 μM and 5 μM, 48-hour incubation
Description: as §7, §8, §9, §10

PAD4 [3] = target: T1, PAD4 (Homo sapiens, UniProt Q9UM07); assay: PAD4 enzyme inhibition assay (Cayman PAD4 inhibitor screening kit, AMC); format: biochemical; details: n = 3; read-out: Inhibitory activity IC50 PAD4
T1 construct: purchased Cayman Chemical
T1 sequence (Q9UM07 whole entry): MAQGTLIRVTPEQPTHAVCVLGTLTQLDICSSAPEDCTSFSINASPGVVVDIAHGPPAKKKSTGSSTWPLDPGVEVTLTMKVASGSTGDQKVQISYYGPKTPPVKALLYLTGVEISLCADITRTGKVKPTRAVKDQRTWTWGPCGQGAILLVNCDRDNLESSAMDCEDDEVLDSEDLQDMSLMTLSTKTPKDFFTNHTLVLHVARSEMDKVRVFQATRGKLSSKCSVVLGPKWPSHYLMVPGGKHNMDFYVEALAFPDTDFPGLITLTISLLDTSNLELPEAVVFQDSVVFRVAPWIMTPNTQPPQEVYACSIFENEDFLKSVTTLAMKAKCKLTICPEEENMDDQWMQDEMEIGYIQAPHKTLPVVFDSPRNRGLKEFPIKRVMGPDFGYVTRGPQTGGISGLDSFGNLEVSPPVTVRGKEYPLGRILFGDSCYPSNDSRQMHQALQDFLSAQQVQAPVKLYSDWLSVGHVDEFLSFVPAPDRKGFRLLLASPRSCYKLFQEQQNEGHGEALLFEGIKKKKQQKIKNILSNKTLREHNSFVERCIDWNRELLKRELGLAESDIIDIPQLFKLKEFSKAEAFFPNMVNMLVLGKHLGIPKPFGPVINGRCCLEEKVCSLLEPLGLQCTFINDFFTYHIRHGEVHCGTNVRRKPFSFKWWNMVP
Description: chromatography with ACN:H2O (0.02% formic acid) as the mobile phase, and then […]
(§11) PAD4 Enzyme Inhibition Assays
(§12) PAD4 Inhibitor Screening Assay Kit (AMC) was purchased from Cayman. Different concentrations of the test compounds were added to a 96-well plate with PAD4 enzyme enzyme and incubated at 37 °C for 10 minutes or 30 minutes. Then […] was added toinitiate the reaction and incubated at 37 °C for 20 min. The reaction was terminated by the addition of Develop solution.
Fluorescence analysis was performed at excitation wavelengths of 355 ~ 365 nm and emission wavelengths of 445 ~ 455 nm. The fluorescence signal was inversely proportional to the amount ofcitrullination. IC50 were analyzed using GraphPad Prism […]
as §2
Pooled liver microsomes from male C57BL/6 mouse (MLM) and mixed gender human (HLM) were obtained from Sekisui XenoTech (Kansas City, KS). Stock solutions of compounds (1 mM) were prepared in DMSO and diluted to 10 μM working solution using phosphate buffer (100 mM, pH 7.4). Microsomes (20 mg/mL) were thawed on ice and diluted to 1 mg/mL using potassium phosphate buffer (100 mM, pH 7.4). The mixture of liver microsomes and test compounds (0.2 μM) was (1 picture or pasted object on this page, not shown here)

PAD2 = PAD2 (Homo sapiens, UniProt Q9Y2J8); assay: PAD2 inhibitory activity; format: biochemical; details: n = 3
Chain of PAD2 (Q9Y2J8 whole entry, species assumed): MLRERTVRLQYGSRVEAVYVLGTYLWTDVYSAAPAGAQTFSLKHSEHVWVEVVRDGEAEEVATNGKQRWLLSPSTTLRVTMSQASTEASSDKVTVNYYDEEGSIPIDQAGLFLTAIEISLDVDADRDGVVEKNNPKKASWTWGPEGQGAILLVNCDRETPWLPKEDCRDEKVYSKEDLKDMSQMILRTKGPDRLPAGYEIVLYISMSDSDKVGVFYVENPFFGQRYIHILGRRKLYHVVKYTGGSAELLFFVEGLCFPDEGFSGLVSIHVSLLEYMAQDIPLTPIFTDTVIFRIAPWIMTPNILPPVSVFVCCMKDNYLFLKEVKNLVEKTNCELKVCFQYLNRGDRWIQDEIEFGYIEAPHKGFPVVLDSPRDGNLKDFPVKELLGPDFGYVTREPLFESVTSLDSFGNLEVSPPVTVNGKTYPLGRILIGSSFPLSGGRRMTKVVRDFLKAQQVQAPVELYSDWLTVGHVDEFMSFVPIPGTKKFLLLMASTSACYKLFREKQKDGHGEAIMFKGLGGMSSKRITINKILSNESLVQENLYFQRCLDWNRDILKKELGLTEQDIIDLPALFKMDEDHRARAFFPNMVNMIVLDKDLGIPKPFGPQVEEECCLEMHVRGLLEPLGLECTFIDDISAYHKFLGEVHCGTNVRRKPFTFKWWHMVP

PAD1 = target: T2, PAD1 (Homo sapiens, UniProt Q9ULC6); assay: PAD1 inhibitory activity; format: biochemical; details: n = 3
T2 sequence (Q9ULC6 1-663): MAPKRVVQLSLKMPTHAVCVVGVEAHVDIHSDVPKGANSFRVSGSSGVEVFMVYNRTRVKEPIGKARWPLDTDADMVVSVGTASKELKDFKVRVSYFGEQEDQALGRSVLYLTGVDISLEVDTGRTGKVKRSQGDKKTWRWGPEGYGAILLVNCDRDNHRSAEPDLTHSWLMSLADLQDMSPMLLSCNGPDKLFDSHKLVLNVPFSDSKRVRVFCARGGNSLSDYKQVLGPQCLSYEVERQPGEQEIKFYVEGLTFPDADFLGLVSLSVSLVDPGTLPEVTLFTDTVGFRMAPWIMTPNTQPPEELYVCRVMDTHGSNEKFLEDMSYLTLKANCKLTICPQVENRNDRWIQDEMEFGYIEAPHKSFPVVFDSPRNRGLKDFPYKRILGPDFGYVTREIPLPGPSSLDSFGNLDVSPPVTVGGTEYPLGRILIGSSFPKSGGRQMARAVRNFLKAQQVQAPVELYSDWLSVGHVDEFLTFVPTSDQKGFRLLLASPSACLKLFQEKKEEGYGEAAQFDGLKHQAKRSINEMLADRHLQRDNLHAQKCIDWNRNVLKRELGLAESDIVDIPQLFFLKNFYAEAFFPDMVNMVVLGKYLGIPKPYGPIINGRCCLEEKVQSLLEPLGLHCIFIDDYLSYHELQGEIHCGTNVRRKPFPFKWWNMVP

PAD4 [4] = target: T1, PAD4; assay: Time-dependent PAD4 inhibition assay (pre-incubation 10 or 30 min); format: biochemical; details: BB-Cl-amidine 1 μM, 7 125 μM, 8 45 μM, n = 3
Description: To test this hypothesis, the three compounds (3, 7 and 8) were further assessed through a time-dependent inhibition assay. This assay involved pre-incubating the compounds with the PAD4 enzyme for 10 and 30 min before initiation of the enzymatic reaction.
Fig. 3. Inhibition of PAD4 with a pre-incubation of the enzyme and tested compounds for 10- or 30-min. […]
as §11, §12
Fluorescence analysis was performed at excitation wavelengths of 355 ~ 365 nm and emission wavelengths of 445 ~ 455 nm. The fluorescence signal was inversely

[5] = cited from earlier work
[6] = read-out: half-life (t1/2) in mouse liver microsomes
[7] = rough estimation beyond the 60 min assay, read-out: t1/2 in MLM, rough estimation

SMILES | remaining at 1 h, 0.2 μM [1] | half-life at 0.2 μM [1, 6] | remaining at 1 h, 0.2 μM [2] | half-life at 0.2 μM [2] | IC50 (PAD4 [3]) | half-life at 0.2 μM [1, 7] | IC50 (PAD2) | IC50 (PAD1) | %inhibition of PAD4, pre-incubation 10 min (PAD4 [4]) | %inhibition of PAD4, pre-incubation 30 min (PAD4 [4]) | viability at 48 h, 500 µM (MTT cytotoxicity assay) | IC50 at 48 h (MTT cytotoxicity assay) | Cytotoxicity on A549 cells (A549 cells) | t1/2 (pharmacokinetic studies) ([5]; in vivo) | t1/2 (pharmacokinetic studies) [5]
N=C(CCl)NCCC[C@H](NC(=O)c1ccc(-c2ccccc2)cc1)c1nc2ccccc2[nH]1 [BB-Cl-amidine, reference compound] | 10.4 ± 1.42% | 0.302 h | 51.8 ± 7.48% | 1.03 h |  |  |  |  |  |  |  |  |  |  | 
N=C(CCl)NCCC[C@H](Nc1ccc([N+](=O)[O-])c2nonc12)C(=O)NCc1ccccc1 [ZD-E-1] |  |  |  |  |  |  |  |  |  |  |  |  |  | 0.41 h | 
N=C(CCl)NCCC[C@H](NC(=O)c1ccc(B(O)O)cc1)C(=O)NCc1ccccc1 [YJ-4B] |  |  |  |  |  |  |  |  |  |  |  |  |  |  | 0.35 h

Further lines, with some results ahead:

remaining at 1 h, 0.2 μM [1] | half-life at 0.2 μM [1, 6] | remaining at 1 h, 0.2 μM [2] | half-life at 0.2 μM [2] | IC50 (PAD4 [3]) | half-life at 0.2 μM [1, 7] | IC50 (PAD2) | IC50 (PAD1) | %inhibition of PAD4, pre-incubation 10 min (PAD4 [4]) | %inhibition of PAD4, pre-incubation 30 min (PAD4 [4]) | SMILES | viability at 48 h, 500 µM (MTT cytotoxicity assay) | IC50 at 48 h (MTT cytotoxicity assay) | Cytotoxicity on A549 cells (A549 cells) | t1/2 (pharmacokinetic studies) ([5]; in vivo) | t1/2 (pharmacokinetic studies) [5]
75.9 ± 4.75% | > 1 h | 90.3 ± 10.6% | > 1 h | 125 ± 10.2 µM | ~2.65 h | 352 ± 21.3 µM | 194 ± 8.21 µM | 31.46% | 36.86% | N=C(CO)NCCC[C@H](NC(=O)c1ccc(-c2ccccc2)cc1)c1nc2ccccc2[nH]1 [Compound 7] | 26.8% | ~455 µM | no cytotoxicity |  | 
63 ± 4.85% | > 1 h | 73.2 ± 1.89% | > 1 h | 46.5 ± 4.46 µM | ~1.45 h | 74.9 ± 6.48 µM | 32 ± 0.78 µM | 49.28% | 51.44% | O=C(CO)NCCC[C@H](NC(=O)c1ccc(-c2ccccc2)cc1)c1nc2ccccc2[nH]1 [Compound 8] | 103% | > 500 µM | no cytotoxicity |  | 
